Blank lines part the entries; values can stand above or below the compound they belong to.
Legend:
[1] = Solubility observed in the AlphaScreen assay; type: physicochemical; settings: at tested concentrations
[2] = system: SMARCA2 bromodomain; settings: cited from earlier work
[3] = system: PBRM1-BD5; settings: cited from earlier work
[4] = target: SMARCA2B bromodomain (Homo sapiens, UniProt P51531); type: binding; settings: DSF, 100 μM inhibitor, 10 μM bromodomain
[5] = system: LNCaP cells expressing shRNA against PBRM1 or vector control; type: cell-based, human; settings: 10 μM, 5 days
[6] = system: PC3 cells; settings: 0.1, 1, 10 μM; compound 7 up to 100 μM
[7] = system: other tested bromodomains; settings: DSF, 100 μM inhibitor, 10 μM bromodomain
[8] = system: SMARCA2B bromodomain; settings: cited from earlier work
[9] = system: SMARCA2 bromodomain; settings: DSF; cited from earlier work

SMARCA2B bromodomain (Homo sapiens, UniProt P51531), sequence (P51531 1373-1493 isoform P51531-2 limits assumed): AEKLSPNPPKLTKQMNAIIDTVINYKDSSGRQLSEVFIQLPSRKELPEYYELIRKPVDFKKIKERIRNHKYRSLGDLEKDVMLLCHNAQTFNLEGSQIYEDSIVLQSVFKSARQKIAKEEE

solubility in the AlphaScreen assay [1]: solubility issues
Compound: Cc1cc(C)c(C2NC(=O)c3c(Cl)cccc3N2)c(C)c1 (centres unmarked) [Compound 22, 5-Chloro-2-(2,4,6-trimethylphenyl)-2,3-dihydroquinazolin-4(1H)-one]

Compound: CN(C)/C=C1\CCn2c1nc(=O)c1c(Cl)cccc12 [Compound 2, (E)-6-Chloro-3-((dimethylamino)methylene)-2,3-dihydropyrrolo[1,2-a]quinazolin-5(1H)-one]
binding toward SMARCA2 bromodomain [2]: nanomolar binding
binding toward PBRM1-BD5 [3]: nanomolar binding

Compound: Cc1cccc(C2NC(=O)c3c(Cl)cccc3N2)c1 (centres unmarked) [Compound 16, 5-Chloro-2-(3-methylphenyl)-2,3-dihydroquinazolin-4(1H)-one]
SMARCA2B ΔTm [4]: did not exhibit detectable thermal stabilization
effect on LNCaP viability with native PBRM1 vs PBRM1 knockdown [5]: more significant effect on LNCaP viability in cells with native PBRM1 levels than in cells with PBRM1 knockdown
growth inhibition of PC3 cells [6]: do not inhibit the growth

Compound: O=C(/C=C/N1C[C@H]2C[C@@H]1CN2c1ccccn1)c1ccccc1O [PFI-3]
binding toward SMARCA2 bromodomain [2]: nanomolar binding
binding toward PBRM1-BD5 [3]: nanomolar binding

Compound: Cc1ccccc1C1NC(=O)c2c(Cl)cccc2N1 (centres unmarked) [Compound 15, 5-Chloro-2-(2-methylphenyl)-2,3-dihydroquinazolin-4(1H)-one]
SMARCA2B ΔTm [4]: did not exhibit detectable thermal stabilization
thermal stabilization of the other tested bromodomains (ΔTm) [7]: < 1 °C

Compound: CCC(CC)C1CC12CCn1c2nc(=O)c2c(Cl)cccc21 (centres unmarked) [LM146]
binding toward SMARCA2B bromodomain [8]: low micromolar affinity

Compound: Cc1cccc(C2NC(=O)c3c(Br)cccc3N2)c1 (centres unmarked) [Compound 34, 5-Bromo-2-(3-methylphenyl)-2,3-dihydroquinazolin-4(1H)-one]
growth inhibition of PC3 cells [6]: do not inhibit the growth

Compound: CCC(/C=C1\CCn2c1nc(=O)c1c(Cl)cccc12)CC [Compound 7, (E)-6-Chloro-3-(2-ethylbutylidene)-2,3-dihydropyrrolo[1,2-a]quinazolin-5(1H)-one]
growth inhibition of PC3 cells [6]: more substantial inhibition
ΔTm SMARCA2 bromodomain [9]: > 2.5 °C

Reference: PMC9630929 (Journal of medicinal chemistry, 2022)
